One may read the IC50 as the concentration needed to halve the response being measured. The low end stands for higher potency, the high end for lower potency. For orientation: Ki means a dissociation constant, usually derived from enzyme kinetics or from competition with a known ligand.

SMILES strings stand for the structures.

Here are results for twelve compounds from patent US5380729A, “12-hetero substituted 6,11-ethano-6,11-dihydrobenzo (b) quinolizinium salts and compositions and method of use thereof” (Sterling Winthrop Inc., priority 1993, dated 1995).

Assay [1] concerns PCP recognition sites. The assay is described as follows: [3H]TCP Radioreceptor Assay (external screen). It counts as binding, rat (whole rat forebrain membranes). As to conditions: @ 10 μM; rat forebrain membranes; 25° C., 60 minutes. How it is done:
Representative compounds of the invention were also tested in an external [^3 H]TCP radioreceptor assay using the following protocol:
[^3 H]TCP Radioreceptor Assay (external screen)
A procedure similar to that described above for the [^3 H]TCP radioreceptor assay (internal screen) was utilized except that the whole rat forebrain membranes were incubated at 25° C. for 60 minutes rather than at room temperature for 25 minutes, before termination of the reaction. The results are reported as a percent (%) inhibition of binding at 10 μM.

Assay [2] concerns PCP recognition sites. In words: [3H]TCP Radioreceptor Assay (internal screen). Format: binding, rat (male Sprague-Dawley. The note with it: rat whole brain membranes, room temperature, 25 min; for Ki: ~1 nM [3H]TCP. The method, then:
[^3 H]TCP Radioreceptor Assay (internal screen)
[^3 H]TCP binding to PCP recognition sites was performed as described by Vignon et al. Brain Research 1983, 280, 194°197. Male Sprague-Dawley rats were sacrificed by decapitation, and whole brains were homogenized in 10 volumes (wt/vol) of cold Tris-HCl buffer (50 mM, pH 7.7) using a Brinkmann Polytron (setting 6, 30 sec). The homogenate was centrifuged at 40,000×g for 10 min at 4° C. The supernatant was decanted, and the homogenization and centrifugation steps were repeated twice as described above. Following this, the pellet was resuspended in Tris-HCl (5 mM, pH 7.7) at a tissue concentration of 0.5°0.75 g/ml, and one ml aliquots were frozen at -70° C. until use. The binding characteristics for PCP recognition sites were not altered by the freezing of membrane suspensions.
On the day of the assay, membrane aliquots were thawed, resuspended in fresh 5 mM Tris-HCl buffer at a tissue concentration of 1 mg/ml, and stored on ice until use. Each assay tube contained 100 μl of [^3 H]TCP at a final concentration of approximately 1 nM, 100 μl of various concentrations of the compounds of interest, 500 μl of the tissue suspension and 300 of buffer to a final assay volume of 1 ml and a final protein concentration of 0.5 mg/tube. Non-specific binding was defined by addition of a final concentration of 100 μM PCP to blank tubes. All tubes were incubated at room temperature for 25 min before termination of the reaction by rapid filtration over Whatman GF/B glass fiber filters that had been presoaked in a solution of 0.5% polyethylenimine for at least 1 hr prior to use. Filters were washed with three 4 ml volumes of cold Tris buffer. Following addition of scintillation cocktail, the amount of bound radioactivity was determined by liquid scintillation spectrometry using a Beckman LS 5000TA liquid scintillation counter with an efficiency for tritium of approximately 55% . Inhibition constants (Ki values) were calculated using the EBDA/LIGAND program (McPherson, J. Pharmacol. Meth. 1985, 14, 213-228), purchased from Elsevier/Biosoft, Inc. Results are reported as Ki values or as a percent (%) inhibition of binding at 10

Assay [3] relates to NMDA-induced neurotoxicity in cultured cortical neurons. In words: Antagonism of NMDA-induced neurotoxicity in cultured neurons (LDH release). Format: cell-based, mouse (Swiss-Webster). The note with it: 500 μM NMDA, 30 minutes, LDH activity at 24 hours, mouse cortical neurons. The method, then:
Antagonism of NMDA-induced Neurotoxicityin Cultured Neurons
Preparation of Cultured Cortical Neurons
Pregnant, Swiss-Webster mice were obtained from Taconic Farms (Germantown, New York) and sacrificed 16 days post conception. Fetuses were removed and placed in a sterile dish containing Hank's balanced salt solution (HBSS), pH 7.4. Brain cortices were dissected, meninges were removed, the tissue was minced and placed into a solution of HBSS containing 0.25% (w/v) trypsin at 37° C. for 15 minutes. Tissue was then triturated with a sterile pasteur pipet, diluted with minimal essential media (Gibco 330-1430), pH 7.4, supplemented with 10% horse serum, 10% fetal calf serum, 2 mM 1-glutamine, 21 mM d-glucose, 2.2 g/L sodium bicarbonate, 1000 u/ml penicillin, and 1,000 μg/ml streptomycin. Cells were plated onto Falcon primaria 96 well plates at a final density of 50,000 cells/well and incubated at 37° C. in the presence of 5% (v/v) carbon dioxide. After 5 days, plating media was replaced with maintenance media containing minimal essential media (Gibco 330- 1430), pH 7.4, supplemented with 10% horse serum, 10% 1-glutamine, 21 mM d-glucose, 2.2 g/l sodium bicarbonate,1,000 U/ml penicillin, 1,000 μg/ml streptomycin, and 10 μM cytosine arabinoside. On days 7 and 10, media was replaced with maintenance media as above lacking the cytosine arabinoside. Experiments were conducted on day 13.
Neuroprotection Assessment
Day 13 cultured cortical neurons were washed twice with minimal essential media, pH 7.4 and then exposed for 30 minutes to 500 μM N-methyl-D-aspartic acid (NMDA) with or without varying concentrations of test agents. Dizocilpine (MK-801) at a final concentration of 10 μM MK-801 was routinely included as a positive control. MK-801 and test agents were prepared in minimal essential media supplemented with 21 mM d-glucose and 2.2 g/L sodium bicarbonate (MEM). After 30 minutes, media was replaced with MEM alone. Exposure of neurons to test agents was limited to the NMDA treatment period. Twenty-four hours after removal of NMDA, an aliquot of media from each well was removed for assessment of cell injury by determining lactate dehydrogenase (LDH) activity by. the method of Wroblewski and LaDue Proc. Soc. Exp. Biol. Med. 1955, 90, 210-213. The results are expressed as an IC50 (in nM) value (concentration causing 50% inhibition) for the antagonism of NMDA--inducedneurotoxicity.
A general note: Release of lactate dehydrogenase indicates damage to the cell membrane.

Regarding `CCOC1(OCC)CC2c3ccc(C)cc3C1c1cccc[n+]12.[O-][Cl+3]([O-])([O-])[O-]` (centres unmarked) [63(g), 9-Methyl-12,12-diethoxy-6,11-ethano-6,11-dihydrobenzo[b]quinolizinium perchlorate], the “Percent inhibition, [3H]TCP (external screen)” value in assay [1] is 0%. The “Percent inhibition, [3H]TCP (internal screen)” value in assay [2] (@ 10 μM) came out at 68%.

With `CCOC1(OCC)C2c3cc([N+](=O)[O-])ccc3C([n+]3ccccc32)C1(C)C.[O-][Cl+3]([O-])([O-])[O-]` (centres unmarked) [Example 46, 6,11-ethano-12,12-diethoxy-13,13-dimethyl-9-nitro-6,11-dihydrobenzo[b]quinolizinium perchlorate], half-maximal inhibition in assay [3] (IC50) was put at 15300 nM. This compound returned an inhibitory constant (Ki) in assay [2] of 2760 nM.

Take `CCOC1(OCC)C2c3ccccc3C(C1Cl)[n+]1ccccc12` (single isomer, unassigned) [Example 41, 6,11-ethano-12,12-diethoxy-13-chloro-6,11-dihydrobenzo[b]quinolizinium bromide]: the IC50 in assay [3] (Cortical neurone) was 445 nM. For the same compound, in assay [2], the affinity corresponds to a Ki of 67 nM.

In assay [3], `CCOC1(OCC)C2c3cc(Br)ccc3C([n+]3ccccc32)C1(C)C.[O-][Cl+3]([O-])([O-])[O-]` (centres unmarked) [Example 35, 6,11-ethano-12,12-diethoxy-13,13-dimethyl-9-bromo-6,11-dihydrobenzo[b]quinolizinium perchlorate] displayed an IC50 of 173 nM. Further, affinity in assay [2] was put at a Ki of 61.5 nM.

In assay [3], `CCOC1(OCC)C2c3c(Br)cccc3C([n+]3ccccc32)C1(C)C.[O-][Cl+3]([O-])([O-])[O-]` (centres unmarked) [Example 29, 6,11-ethano-12,12-diethoxy-13,13-dimethyl-10-bromo-6,11-dihydrobenzo[b]quinolizinium perchlorate] returned an IC50 of 1040 nM. This compound also showed a Ki in assay [2] of 132 nM.

On to `CCOC1(OCC)CC2c3c(C)ccc(C)c3C1c1cccc[n+]12.[O-][Cl+3]([O-])([O-])[O-]` (centres unmarked) [63(h), 7,10-Dimethyl-12,12-diethoxy-6,11-ethano-6,11-dihydrobenzo[b]quinolizinium perchlorate], for which the “Percent inhibition, [3H]TCP (external screen)” value in assay [1] was found to be 52%.

Take `CCOC1(OCC)CC2c3ccccc3C1(C)c1cccc[n+]12.[O-][Cl+3]([O-])([O-])[O-]` (centres unmarked) [63(c), 11-Methyl-12,12-diethoxy-6,11-ethano-6,11-dihydrobenzo[b]quinolizinium perchlorate]: the “Percent inhibition, [3H]TCP (external screen)” value in assay [1] amounted to 0%. Also, the Ki in assay [2] is 9300 nM.

`CCOC1(OCC)C2c3cc(OC)ccc3C([n+]3ccccc32)C1(C)C` (single isomer, unassigned) [20(a), 9-methoxy-12,12-diethoxy-13,13-dimethyl-6,11-ethano-6,11-dihydrobenzo[b]quinolizinium hexafluorophosphate]: the IC50 in assay [3] came to 157 nM. Moreover, in assay [2], the Ki was 3.52 nM.

Consider `CCOC1(OCC)C2(C)c3ccccc3C([n+]3ccccc32)C1(C)C.[O-][Cl+3]([O-])([O-])[O-]` (centres unmarked) [Example 51, 6,11-ethano-12,12-diethoxy-13,13-dimethyl-11-methyl-6,11-dihydrobenzo[b]quinolizinium perchlorate], for which, in assay [3] (Cortical neurone), the IC50 was 32.4 nM. In assay [2], affinity was put at a Ki of 11.3 nM.

For the compound `CCOC1(OCC)C2c3ccccc3C([n+]3ccccc32)C1(C)C.[O-][Cl+3]([O-])([O-])[O-]` (centres unmarked) [1(a), 12,12-diethoxy-13,13-dimethyl-6,11-ethano-6,11-dihydrobenzo[b]quinolizinium perchlorate], half-maximal inhibition in assay [3] (Cortical neurone) (IC50) required 17 nM. The same compound yielded a Ki in assay [2] of 8.4 nM.

Take `CCCOC1(OCCC)C2c3ccccc3C([n+]3ccccc32)C1(C)C.[O-][Cl+3]([O-])([O-])[O-]` (centres unmarked) [Example 39, 6,11-ethano-12,12-dipropoxy-13,13-dimethyl-6,11-dihydrobenzo[b]quinolizinium perchlorate]: the IC50 in assay [3] was found to be 85 nM. The same compound registered an inhibitory constant (Ki) in assay [2] of 11.5 nM.

Consider `CCOC1(OCC)C2c3ccccc3C([n+]3ccccc32)C1(C)C` (single isomer, unassigned) [Example 13(c), 12,12-diethoxy-13,13-dimethyl-6,11-ethano-6,11-dihydrobenzo[b]quinolizinium chloride-1/2-3/4 hydrate], for which half-maximal inhibition in assay [3] (Cortical neurone) (IC50) required 50 nM. Moreover, the affinity in assay [2] (hydrate), expressed as Ki, was 11 nM.
